According to patent US20240058464A1 (Fortis Therapeutics, Inc., priority 2021, published 2024):

How the values were obtained:
CD46 expression [1] = test: CD46 expression by RNA-sequencing in unpaired pre-treatment and post-treatment tumor biopsies; format: in vivo, human; settings: for CD46 expression Post: post-treatment biopsies
CD46 expression [2] = test: CD46 expression by RNA-sequencing in paired tumor biopsies before and after therapy; settings: for CD46 expression diff (post minus pre) / Percent Change in CD46 expression / CD46 expression, Post-Treatment Biopsy / CD46 expression, Pre-Treatment Biopsy: paired biopsies; for CD46 expression, Post-Treatment Biopsy / CD46 expression, Pre-Treatment Biopsy: RNA-seq log2-transformed counts;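 on all read-outs here: FFPE human tumor biopsies, exome-capture RNA-seq, reads aligned to GRCh37, counts normalized for GC content, length and depth, summed per gene, log2-transformed, samples paired before versus after therapy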
[3] = Breast Cancer, Post minus Pre, unpaired biopsies, log2-transformed counts
[4] = Breast Cancer, post- vs pre-treatment unpaired biopsies
[5] = Breast Cancer, unpaired, RNA-seq log2-transformed normalized counts
[6] = Colorectal Cancer, Post minus Pre, unpaired biopsies, log2-transformed counts
[7] = Colorectal Cancer, post- vs pre-treatment unpaired biopsies
[8] = Colorectal Cancer, unpaired, RNA-seq log2-transformed normalized counts
[9] = Biliary Cancer, Post minus Pre, unpaired biopsies, log2-transformed counts
[10] = Biliary Cancer, post- vs pre-treatment unpaired biopsies
[11] = Biliary Cancer, unpaired, RNA-seq log2-transformed normalized counts
[12] = Esophageal Cancer, Post minus Pre, unpaired biopsies, log2-transformed counts
[13] = Esophageal Cancer, post- vs pre-treatment unpaired biopsies
[14] = Esophageal Cancer, unpaired, RNA-seq log2-transformed normalized counts
[15] = Gastric Cancer, Post minus Pre, unpaired biopsies, log2-transformed counts
[16] = Gastric Cancer, post- vs pre-treatment unpaired biopsies
[17] = Gastric Cancer, unpaired, RNA-seq log2-transformed normalized counts
[18] = Pancreatic Cancer, Post minus Pre, unpaired biopsies, log2-transformed counts
[19] = Pancreatic Cancer, post- vs pre-treatment unpaired biopsies
[20] = Prostate Cancer, Post minus Pre, unpaired biopsies, log2-transformed counts
[21] = Prostate Cancer, post- vs pre-treatment unpaired biopsies
[22] = Prostate Cancer, unpaired, RNA-seq log2-transformed normalized counts

Compound: C[C@@H]1C[C@H]2[C@@H]3CCC4=CC(=O)C=C[C@]4(C)[C@@]3(F)[C@@H](O)C[C@]2(C)[C@@]1(O)C(=O)CO [dexamethasone]
- CD46 expression diff (CD46 expression [1]; [3]): −0.07
- CD46 expression Percentage change (CD46 expression [1]; [4]): −1.1%
- CD46 expression Post (CD46 expression [1]; [5]): 6.20
- CD46 expression diff (CD46 expression [1]; [6]): 0.06
- CD46 expression Percentage change (CD46 expression [1]; [7]): 1.0%
- CD46 expression Post (CD46 expression [1]; [8]): 6.44
- CD46 expression diff (CD46 expression [1]; Non-Small Cell Lung Cancer, Post minus Pre, unpaired biopsies, log2-transformed counts): 0.00
- CD46 expression Percentage change (CD46 expression [1]; Non-Small Cell Lung Cancer, post- vs pre-treatment unpaired biopsies): 0.0%
- CD46 expression Post (CD46 expression [1]; Non-Small Cell Lung Cancer, unpaired, RNA-seq log2-transformed normalized counts): 6.14
- CD46 expression diff (CD46 expression [1]; Ovarian Cancer, post minus pre, unpaired biopsies): −0.22
- CD46 expression Percentage change (CD46 expression [1]; Ovarian Cancer, post vs pre, unpaired biopsies): −3.9%
- CD46 expression Post (CD46 expression [1]; Ovarian Cancer, log2-transformed RNA-seq counts): 5.48
- CD46 expression diff (CD46 expression [1]; Pancreatic Cancer, post minus pre, unpaired biopsies): −0.27
- CD46 expression Percentage change (CD46 expression [1]; Pancreatic Cancer, post vs pre, unpaired biopsies): −4.5%
- CD46 expression Post (CD46 expression [1]; Pancreatic Cancer, log2-transformed RNA-seq counts): 5.75
- CD46 expression diff (post minus pre) (CD46 expression [2]; Colorectal Cancer): −0.19
- Percent Change in CD46 expression (CD46 expression [2]; Colorectal Cancer): −3.0%
- CD46 expression, Post-Treatment Biopsy (CD46 expression [2]; Colorectal Cancer): 5.96

Compound: CCCCCOC(=O)Nc1nc(=O)n([C@@H]2O[C@H](C)[C@@H](O)[C@H]2O)cc1F [capecitabine]
- CD46 expression diff (CD46 expression [1]; [9]): 0.10
- CD46 expression Percentage change (CD46 expression [1]; [10]): 1.8%
- CD46 expression Post (CD46 expression [1]; [11]): 5.87
- CD46 expression diff (CD46 expression [1]; [3]): −0.07
- CD46 expression Percentage change (CD46 expression [1]; [4]): −1.2%
- CD46 expression Post (CD46 expression [1]; [5]): 6.15
- CD46 expression diff (CD46 expression [1]; [6]): 0.05
- CD46 expression Percentage change (CD46 expression [1]; [7]): 0.8%
- CD46 expression Post (CD46 expression [1]; [8]): 6.43
- CD46 expression diff (CD46 expression [1]; Endocrine Tumor, Post minus Pre, unpaired biopsies, log2-transformed counts): 0.06
- CD46 expression Percentage change (CD46 expression [1]; Endocrine Tumor, post- vs pre-treatment unpaired biopsies): 1.1%
- CD46 expression Post (CD46 expression [1]; Endocrine Tumor, unpaired, RNA-seq log2-transformed normalized counts): 5.66
- CD46 expression diff (CD46 expression [1]; [12]): 0.05
- CD46 expression Percentage change (CD46 expression [1]; [13]): 0.8%
- CD46 expression Post (CD46 expression [1]; [14]): 6.02
- CD46 expression diff (CD46 expression [1]; [15]): −0.04
- CD46 expression Percentage change (CD46 expression [1]; [16]): −0.7%
- CD46 expression Post (CD46 expression [1]; [17]): 5.73
- CD46 expression diff (CD46 expression [1]; [18]): 0.07
- CD46 expression Percentage change (CD46 expression [1]; [19]): 1.2%
- CD46 expression Post (CD46 expression [1]; Pancreatic Cancer, unpaired, RNA-seq log2-transformed normalized counts): 5.93
- CD46 expression diff (post minus pre) (CD46 expression [2]; Breast Cancer): −0.06
- Percent Change in CD46 expression (CD46 expression [2]; Breast Cancer): −0.9%
- CD46 expression, Post-Treatment Biopsy (CD46 expression [2]; Breast Cancer): 6.23
- CD46 expression diff (post minus pre) (CD46 expression [2]; Colorectal Cancer): 0.06
- Percent Change in CD46 expression (CD46 expression [2]; Colorectal Cancer): 1.0%
- CD46 expression diff (post minus pre) (CD46 expression [2]; Pancreatic Cancer): 0.16
- Percent Change in CD46 expression (CD46 expression [2]; Pancreatic Cancer): 2.8%
- CD46 expression, Post-Treatment Biopsy (CD46 expression [2]; Pancreatic Cancer): 5.98

Compound: panitumumab
- CD46 expression diff (CD46 expression [1]; [6]): 0.28
- CD46 expression Percentage change (CD46 expression [1]; [7]): 4.4%
- CD46 expression Post (CD46 expression [1]; [8]): 6.64
- CD46 expression diff (post minus pre) (CD46 expression [2]; Colorectal Cancer): −0.10
- Percent Change in CD46 expression (CD46 expression [2]; Colorectal Cancer): −1.4%
- CD46 expression, Post-Treatment Biopsy (CD46 expression [2]; Colorectal Cancer): 6.62
- CD46 expression, Pre-Treatment Biopsy (CD46 expression [2]; Colorectal Cancer): 6.71

Compound: CNC(=O)c1ccc(N2C(=S)N(c3ccc(C#N)c(C(F)(F)F)c3)C(=O)C2(C)C)cc1F [enzalutamide]
- CD46 expression diff (CD46 expression [1]; [20]): 0.03
- CD46 expression Percentage change (CD46 expression [1]; [21]): 0.4%
- CD46 expression Post (CD46 expression [1]; [22]): 6.14
- CD46 expression diff (post minus pre) (CD46 expression [2]; Prostate Cancer): 0.06
- Percent Change in CD46 expression (CD46 expression [2]; Prostate Cancer): 1.1%
- CD46 expression, Post-Treatment Biopsy (CD46 expression [2]; Prostate Cancer): 6.01

Compound: C=C1C[C@@H]2CC[C@@]34C[C@H]5O[C@H]6[C@@H](O3)[C@H]3O[C@H](CC[C@@H]3O[C@H]6[C@H]5O4)CC(=O)C[C@@H]3[C@@H](OC)[C@@H](C[C@H](O)CN)O[C@H]3C[C@H]3O[C@@H](CC[C@@H]1O2)C[C@@H](C)C3=C [eribulin]
- CD46 expression diff (CD46 expression [1]; [3]): 0.11
- CD46 expression Percentage change (CD46 expression [1]; [4]): 1.8%
- CD46 expression Post (CD46 expression [1]; [5]): 6.20
- CD46 expression diff (post minus pre) (CD46 expression [2]; Breast Cancer): −0.54
- Percent Change in CD46 expression (CD46 expression [2]; Breast Cancer): −8.4%
- CD46 expression, Post-Treatment Biopsy (CD46 expression [2]; Breast Cancer): 5.92

Compound: O=C1[O][Pt]2([NH][C@@H]3CCCC[C@H]3[NH]2)[O]C1=O [oxaliplatin]
- CD46 expression diff (CD46 expression [1]; [9]): 0.05
- CD46 expression Percentage change (CD46 expression [1]; [10]): 0.9%
- CD46 expression Post (CD46 expression [1]; [11]): 5.91
- CD46 expression diff (CD46 expression [1]; [6]): 0.04
- CD46 expression Percentage change (CD46 expression [1]; [7]): 0.6%
- CD46 expression Post (CD46 expression [1]; [8]): 6.42
- CD46 expression diff (CD46 expression [1]; [12]): −0.06
- CD46 expression Percentage change (CD46 expression [1]; [13]): −1.0%
- CD46 expression Post (CD46 expression [1]; [14]): 5.85
- CD46 expression diff (CD46 expression [1]; [15]): −0.12
- CD46 expression Percentage change (CD46 expression [1]; [16]): −2.1%
- CD46 expression Post (CD46 expression [1]; [17]): 5.66
- CD46 expression diff (CD46 expression [1]; [18]): −0.13
- CD46 expression Percentage change (CD46 expression [1]; [19]): −2.2%
- CD46 expression diff (post minus pre) (CD46 expression [2]; Colorectal Cancer): −0.04
- Percent Change in CD46 expression (CD46 expression [2]; Colorectal Cancer): −0.6%
- CD46 expression, Post-Treatment Biopsy (CD46 expression [2]; Colorectal Cancer): 6.26
- CD46 expression, Pre-Treatment Biopsy (CD46 expression [2]; Colorectal Cancer): 6.30
- CD46 expression diff (post minus pre) (CD46 expression [2]; Esophageal Cancer): −0.17
- Percent Change in CD46 expression (CD46 expression [2]; Esophageal Cancer): −2.9%
- CD46 expression, Post-Treatment Biopsy (CD46 expression [2]; Esophageal Cancer): 5.74
- CD46 expression, Pre-Treatment Biopsy (CD46 expression [2]; Esophageal Cancer): 5.91
- CD46 expression diff (post minus pre) (CD46 expression [2]; Gastric Cancer): 0.05
- Percent Change in CD46 expression (CD46 expression [2]; Gastric Cancer): 0.8%
- CD46 expression, Post-Treatment Biopsy (CD46 expression [2]; Gastric Cancer): 5.69
- CD46 expression, Pre-Treatment Biopsy (CD46 expression [2]; Gastric Cancer): 5.64
- CD46 expression diff (post minus pre) (CD46 expression [2]; Pancreatic Cancer): 0.06
- Percent Change in CD46 expression (CD46 expression [2]; Pancreatic Cancer): 1.0%
- CD46 expression, Post-Treatment Biopsy (CD46 expression [2]; Pancreatic Cancer): 5.93
- CD46 expression, Pre-Treatment Biopsy (CD46 expression [2]; Pancreatic Cancer): 5.87

Compound: C[C@]12CC[C@@H]3c4ccc(O)cc4C[C@@H](CCCCCCCCC[S+]([O-])CCCC(F)(F)C(F)(F)F)[C@H]3[C@@H]1CC[C@@H]2O (stereo partly drawn) [fulvestrant]
- CD46 expression diff (CD46 expression [1]; [3]): −0.08
- CD46 expression Percentage change (CD46 expression [1]; [4]): −1.2%
- CD46 expression Post (CD46 expression [1]; [5]): 6.41
- CD46 expression diff (post minus pre) (CD46 expression [2]; Breast Cancer): −0.13
- Percent Change in CD46 expression (CD46 expression [2]; Breast Cancer): −2.1%
- CD46 expression, Post-Treatment Biopsy (CD46 expression [2]; Breast Cancer): 6.44

Compound: CC(C)(C#N)c1cc(Cn2cncn2)cc(C(C)(C)C#N)c1 [anastrozole]
- CD46 expression diff (CD46 expression [1]; [3]): 0.06
- CD46 expression Percentage change (CD46 expression [1]; [4]): 0.9%
- CD46 expression Post (CD46 expression [1]; [5]): 6.41
- CD46 expression diff (post minus pre) (CD46 expression [2]; Breast Cancer): 0.41
- Percent Change in CD46 expression (CD46 expression [2]; Breast Cancer): 6.7%
- CD46 expression, Post-Treatment Biopsy (CD46 expression [2]; Breast Cancer): 6.49
- subjects whose paired biopsies showed increased CD46 expression (CD46 expression [2]; breast cancer, 15 of 19 subjects, FIG. 3): 79%

Compound: CCNC(=O)[C@@H]1CCCN1C(=O)[C@H](CCCNC(=N)N)NC(=O)[C@H](CC(C)C)NC(=O)[C@@H](CC(C)C)NC(=O)[C@H](Cc1ccc(O)cc1)NC(=O)[C@H](CO)NC(=O)[C@H](Cc1c[nH]c2ccccc12)NC(=O)[C@H](Cc1c[nH]cn1)NC(=O)[C@@H]1CCC(=O)N1 [leuprolide]
- CD46 expression diff (CD46 expression [1]; Breast Cancer, post minus pre, unpaired biopsies): −0.15
- CD46 expression Percentage change (CD46 expression [1]; Breast Cancer, post vs pre, unpaired biopsies): −2.3%
- CD46 expression Post (CD46 expression [1]; Breast Cancer, log2-transformed RNA-seq counts): 6.18
- CD46 expression Pre (CD46 expression [1]; Breast Cancer, pre-treatment biopsies, log2-transformed RNA-seq counts): 6.33
- CD46 expression diff (CD46 expression [1]; [20]): −0.10
- CD46 expression Percentage change (CD46 expression [1]; [21]): −1.6%
- CD46 expression Post (CD46 expression [1]; [22]): 6.08
- CD46 expression diff (post minus pre) (CD46 expression [2]; Prostate Cancer): −0.19
- Percent Change in CD46 expression (CD46 expression [2]; Prostate Cancer): −3.1%
- CD46 expression, Post-Treatment Biopsy (CD46 expression [2]; Prostate Cancer): 5.92
- CD46 expression, Pre-Treatment Biopsy (CD46 expression [2]; Prostate Cancer): 6.11
